According to PubChem BioAssay (NCI):
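Where inhibition never reached the appropriate level, the endpoint shown equals the highest concentration tested. Otherwise, values were interpolated linearly from a five-concentration, 48-hour dose response in 96-well plates. Abbreviation: GI50, concentration required for 50% inhibition of growth. TGI is the concentration that stops growth completely.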

Assays:
Test in all cases: growth of human tumour cells (NCI), 48 h
[1] = tested on: HOP-62 NSCLC
[2] = tested on: UO-31 renal
[3] = tested on: ACHN renal
[4] = tested on: MOLT-4 leukemia
[5] = tested on: EKVX NSCLC
[6] = tested on: RPMI-8226 leukemia
[7] = tested on: SF-268 CNS
[8] = tested on: HL-60(TB) leukemia
[9] = tested on: T-47D breast
[10] = tested on: U251 CNS

SMILES: O=C(Nc1cccc(-n2ccc3c(NC(=O)c4ccccc4)nccc32)c1)c1cc(N2CCOCC2)cc(C(F)(F)F)c1
- GI50 [1]: 0.168 µM
- TGI [1]: > 100 µM
- GI50 [2]: 0.754 µM
- TGI [2]: > 100 µM
- GI50 [3]: 0.116 µM
- GI50 [4]: 0.907 µM
- TGI [4]: > 100 µM
- GI50 [5]: 0.802 µM
- TGI [5]: > 100 µM
- GI50 [6]: 0.223 µM
- GI50 [7]: 0.264 µM
- TGI [7]: > 100 µM
- GI50 [8]: 0.514 µM
- TGI [8]: > 100 µM
- GI50 [9]: > 51.8 µM
- TGI [9]: > 100 µM
- GI50 [10]: 0.118 µM
- TGI [10]: > 100 µM

SMILES: Cc1ccc2nc(Cl)c(/C=N/N3C(=O)/C(=C/c4ccc(N(C)C)cc4)N=C3c3ccccc3)cc2c1
- TGI [1]: > 100 µM
- TGI [2]: > 100 µM
- TGI [3]: > 100 µM
- TGI [4]: 68.5 µM
- TGI [5]: > 100 µM
- TGI [6]: 65.3 µM
- TGI [7]: > 100 µM
- TGI [8]: > 100 µM
- TGI [9]: > 100 µM
- TGI [10]: > 100 µM

SMILES: Cc1c(F)c(N)c2c(=O)cc(-c3ccc(NC(=O)C(N)CCCN=C(N)N)c(F)c3)oc2c1F (stereo not drawn)
- TGI [1]: 99.6 µM
- TGI [2]: > 55.8 µM
- TGI [3]: 48.5 µM
- TGI [4]: > 100 µM
- TGI [5]: > 100 µM
- TGI [6]: > 100 µM
- TGI [7]: > 100 µM
- TGI [8]: > 100 µM
- TGI [9]: > 100 µM
- TGI [10]: > 55.3 µM

SMILES: O=C1C(N=Nc2ccc(-c3nc4ccccc4[nH]3)cc2)NC(=S)N1c1ccccc1 (stereo not drawn)
- TGI [1]: > 100 µM
- TGI [2]: > 100 µM
- TGI [3]: > 100 µM
- TGI [4]: 48.8 µM
- TGI [5]: > 100 µM
- TGI [6]: 60.2 µM
- TGI [7]: > 100 µM
- TGI [8]: > 100 µM
- TGI [9]: 62.8 µM
- TGI [10]: > 100 µM
